Experimental data from US20180327367A1, “MACROCYCLIC BROAD SPECTRUM ANTIBIOTICS” (priority 2015, published 2018).
≈ marks a conversion by molar mass, not a printed value. Like-named read-outs stand apart in the source and are kept apart here.

What was measured:
[1] = biological target: T1, SpsB (Staphylococcus aureus signal peptidase) (Staphylococcus aureus, UniProt P0A070); experiment: cell-based; format: biochemical; settings: SpsB IC50, whole-cell S. aureus (USA300 background, overexpressing SpsB) as SpsB source; fluorogenic peptide substrate, kinetic read 30 min
T1 construct: This assay uses a suspension of Staphylococcus aureus cells as a source of SpsB instead of recombinant SpsB protein; endogenous in cells; host or cells: S. aureus, USA300 background, overexpressing SpsB (whole-cell suspension from frozen pellets)
Summary of the method: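 Cleavage of an internally quenched (Dabcyl)βAla-KPAKAAE(Edans) peptide, added as 20 μM solution mixed 1:1 with cells, was followed for 30 min at 340/490 nm. SpsB came from a suspension of SpsB-overexpressing USA300 S. aureus in Tween-80-containing PBS buffer. Slopes plotted against 3-fold compound dilutions gave IC50.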

[2] = tested on: Methicillin Resistant Staphylococcus aureus strain USA 300, NRS384; experiment: Minimum inhibitory concentration, broth micro-dilution (CLSI), S. aureus; format: cell-based; settings: Staphylococcus aureus, MRSA / NRS 384 / USA300, 22 h, 35° C., 22 hours
Summary of the method: (§1)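 Ten-point 2-fold series began at 4 μg/mL in protocol 2 and 0.5 μg/mL in protocol 3, in cation-adjusted MHB plus 0.002% Tween-80. Bacteria added to OD600 0.0005 final and incubated at 35° C for 22 hours per CLSI microdilution.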

[3] = tested on: Escherichia coli MC4100 harboring the IMP4213 (E. coli IMP); experiment: microbe, parasite or virus in culture; format: cell-based; settings: Escherichia coli, 22 h, read-out: MIC (μg/mL) E. coli IMP, E. coli MC4100 IMP4213, increased outer-membrane permeability; 35° C., 22 hours
Summary of the method: as §1

[4] = tested on: Escherichia coli ATCC 25922; experiment: Minimum inhibitory concentration, broth micro-dilution (CLSI), E. coli; format: cell-based; settings: Escherichia coli, ATCC25922, 22 h, 35° C., 22 hours
[5] = MRSA USA 300 NRS384, read-out: MIC (μg/mL) S. aureus
[6] = E. coli ATCC 25922, read-out: MIC (μg/mL) E. coli
[7] = read-out: MIC (μg/mL) S. aureus, MRSA USA 300 NRS384
[8] = read-out: MIC (μg/mL) E. coli, E. coli ATCC 25922

T1 sequence (P0A070 whole entry): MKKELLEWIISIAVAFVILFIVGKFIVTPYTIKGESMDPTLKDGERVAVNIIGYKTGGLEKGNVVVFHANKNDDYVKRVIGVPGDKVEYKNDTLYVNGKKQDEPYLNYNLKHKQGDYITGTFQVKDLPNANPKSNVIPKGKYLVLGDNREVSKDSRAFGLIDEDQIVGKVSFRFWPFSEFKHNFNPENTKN

Structure (SMILES)	IC50 [1] [nM]	MIC [2, 5] [µg/mL]	MIC [3] [µg/mL]	MIC [4, 6] [µg/mL]	MIC [2, 7] [µg/mL]	MIC [4, 8] [µg/mL]
CCCC#Cc1ccc(C(=O)N[C@@H](CCN)C(=O)N(C)[C@@H]2C(=O)N[C@@H](C)C(=O)N[C@H](C(=O)NCC#N)Cc3ccc(OCCN)c(c3)-c3cc2ccc3OCCN)c(C)c1 [Compound 307]	3.5	0.25 (≈ 0.304 µM)	0.031 (≈ 0.0377 µM)	0.88 (≈ 1.07 µM)	–	–
CCC/C=C\c1ccc(C(=O)N[C@@H](CCN)C(=O)N(C)[C@@H]2C(=O)N[C@@H](C)C(=O)N[C@H](C(=O)NCC#N)Cc3ccc(OCCN)c(c3)-c3cc2ccc3OCCN)c(C)c1 [Compound 308]	0.71	0.063 (≈ 0.0765 µM)	0.016 (≈ 0.0194 µM)	1 (≈ 1.21 µM)	–	–
Cc1cc(C#CC(C)C)ccc1C(=O)N[C@@H](CCN)C(=O)N(C)[C@@H]1C(=O)N[C@@H](C)C(=O)N[C@H](C(=O)NCC#N)Cc2ccc(OCCN)c(c2)-c2cc1ccc2OCCN [Compound 309]	1	0.19 (≈ 0.231 µM)	0.02 (≈ 0.0243 µM)	1.1 (≈ 1.34 µM)	–	–
Cc1cc(C#CC2CCCCC2)ccc1C(=O)N[C@@H](CCN)C(=O)N(C)[C@@H]1C(=O)N[C@@H](C)C(=O)N[C@H](C(=O)NCC#N)Cc2ccc(OCCN)c(c2)-c2cc1ccc2OCCN [Compound 310]	0.99	0.047 (≈ 0.0545 µM)	0.0098 (≈ 0.0114 µM)	0.13 (≈ 0.151 µM)	–	–
C[C@@H]1NC(=O)[C@@H](N(C)C(=O)[C@H](CCN)NC(=O)c2ccc(C#CC3CCCCC3)cc2C(F)F)c2ccc(OCCN)c(c2)-c2cc(ccc2OCCN)C[C@@H](C(=O)NCC#N)NC1=O [Compound 311]	0.64	–	0.012 (≈ 0.0134 µM)	–	0.047 (≈ 0.0523 µM)	0.25 (≈ 0.278 µM)
CCCCCCCc1cc(C)c(C(=O)N[C@@H](CCN)C(=O)N(C)[C@@H]2C(=O)N[C@@H](C)C(=O)N[C@H](C(=O)NCC#N)Cc3ccc(OCCN)c(c3)-c3cc2ccc3OCCN)cn1 [Compound 313]	0.68	0.031 (≈ 0.0363 µM)	0.0078 (≈ 0.00912 µM)	0.5 (≈ 0.585 µM)	–	–
CCCCCCCCCCNCCC(=O)N(C)[C@@H]1C(=O)N[C@@H](C)C(=O)N[C@H](C(=O)NCC#N)Cc2ccc(O)c(c2)-c2cc1ccc2OCCN [Compound 316]	0.84	0.13 (≈ 0.184 µM)	2 (≈ 2.83 µM)	> 64	–	–
CCCCCCCCCCNCCC(=O)N(C)[C@@H]1C(=O)N[C@@H](C)C(=O)N[C@H](C(=O)NCC#N)Cc2ccc(OCCN)c(c2)-c2cc1ccc2O [Compound 317]	0.87	0.094 (≈ 0.133 µM)	1 (≈ 1.42 µM)	64 (≈ 90.7 µM)	–	–
C[C@@H]1NC(=O)[C@@H](N(C)C(=O)[C@H](CCCCN)NC(=O)c2ccc(-c3ccc(Cl)cc3)cc2)c2ccc(OCCN)c(c2)-c2cc(ccc2O)C[C@@H](C(=O)N[C@@H](C)C#N)NC1=O [Compound 319]	6.3	–	0.75 (≈ 0.881 µM)	–	2 (≈ 2.35 µM)	> 64
CCCCCCCCCCNCCC(=O)N[C@@H](CCCCN)C(=O)N(C)[C@@H]1C(=O)N[C@@H](C)C(=O)N[C@H](C(=O)NCC#N)Cc2ccc(O)c(c2)-c2cc1ccc2OCCN [Compound 320]	0.97	0.13 (≈ 0.156 µM)	2 (≈ 2.4 µM)	> 64	–	–
CCCCc1ccc(-c2ccc(C(=O)N[C@@H](CN)C(=O)N(C)[C@@H]3C(=O)N[C@@H](C)C(=O)N[C@H](C(=O)NCC#N)Cc4ccc(OCCO)c(c4)-c4cc3ccc4OCCN)cc2)cc1 [Compound 321]	1.8	–	0.016 (≈ 0.0186 µM)	–	0.38 (≈ 0.441 µM)	1 (≈ 1.16 µM)
CCCCc1ccc(-c2ccc(C(=O)N[C@@H](CN)C(=O)N(C)[C@@H]3C(=O)N[C@@H](C)C(=O)N[C@H](C(=O)NCC#N)Cc4ccc(OCCC)c(c4)-c4cc3ccc4OCCN)cc2)cc1 [Compound 322]	8.4	1.5 (≈ 1.75 µM)	0.13 (≈ 0.151 µM)	4 (≈ 4.66 µM)	–	–
CCCCCCCCCCCCCC(=O)N[C@@H](CCN)C(=O)N(C)[C@@H]1C(=O)N[C@@H](C)C(=O)N[C@H](C(=O)NCC#N)Cc2ccc(OCCC)c(c2)-c2cc1ccc2OCCN [Compound 323]	2.8	0.75 (≈ 0.885 µM)	0.094 (≈ 0.111 µM)	1.5 (≈ 1.77 µM)	–	–
CCCCCCCCCCCCCC(=O)N[C@@H](CCN)C(=O)N(C)[C@@H]1C(=O)N[C@@H](C)C(=O)N[C@H](C(=O)NCC#N)Cc2ccc(OCC)c(c2)-c2cc1ccc2OCCN [Compound 324]	0.82	0.25 (≈ 0.3 µM)	0.031 (≈ 0.0372 µM)	1 (≈ 1.2 µM)	–	–
